# Test results published in PMC12281424, “A Rac-specific competitive inhibitor of guanine nucleotide binding reduces metastasis in triple-negative breast cancer” (Cell Reports Medicine, 2025).
# Assays:
# [1] = test system: AKT phosphorylation in MDA-MB-468 Luc cells; experiment: Immunoblotting; format: cell-based; conditions: 10^-5 M, 1 h
# Method: (§1) Figure 5 A41 decreases growth and invasiveness of TNBC cells in vitro (A) Representative images of RAC-GTP levels (red) in MDA-MB-468 Luc cells in the absence (CTL) and presence of EHT1864, NSC23766, or A41 (1 h at 10 μM) (left). Luciferase (Luc, green) was used to detect the cells. RAC-GTP mean fluorescence intensity was quantified inside the cell area (right) (n = 31–37 cells from 3 independent experiments; ∗p < 0.05, ∗∗∗p < 0.001) (scale bars: 10 μm). […] (C) Quantification of colony number of indicated cancer cell lines in the presence of A41 (10 μM) expressed as the percentage of control in the absence of A41. Results shown are representative of N > 3 independent experiments. (D) Immunoblot analysis and corresponding quantification of AKT and P44/42 expression and phosphorylation (pAKT, p44/42) in MDA-MB-468 Luc cells in the absence (−) and presence of NSC23766 or A41 (1 h at 10^−5 M). […] (E) 3D invasion assay of MDA-MB-468 Luc and cancer-associated fibroblasts (CAFs) and corresponding quantification (scale bars: 200 μm). […]
# (§2) After indicated treatments, MDA-MB-468Luc cells were incubated on ice with lysis buffer supplemented with proteases and phosphatases inhibitor cocktails (Sigma Aldrich, Saint Quentin Fallavier, France) and sodium orthovanadate. […] Protein band intensities were quantified using ImageJ Software (NIH software, Bethesda, Md).
# [2] = test system: p44/42 phosphorylation in MDA-MB-468 Luc cells; experiment: Immunoblotting; format: cell-based; conditions: 10^-5 M, 1 h
# Method: as §1, §2
# TA1535 = experiment: Ames fluctuation test (5th group); format: cell-based
# Source text: Data S3. Ames-fluctuation assay-A41.
# Test Concentration Count Positive Significance Fisher Exact Test
# [3] = test system: Glutamate, NMDA, Polyamine; experiment: Safety screen; format: binding, rat
# Method: (§3) Blood cell counts, kinase profiler, safety screen, bacterial cytotoxicity, Ames, micronucleus assays were performed by the company Eurofins (France). The kinase profiler was performed by the company Eurofins (Discovery, Panlab and Cerep).
# [4] = test system: Glycine, Strychnine-Sensitive; experiment: Safety screen; format: binding, rat
# Opiate µ(OP3, MOP) = Opiate µ(OP3, MOP) (Homo sapiens, UniProt P35372); experiment: Safety screen; format: binding
# Method: as §3
# [5] = molecular target: Platelet Activating Factor (PAF) (Homo sapiens, UniProt P25105); experiment: Safety screen; format: binding
# Method: as §3
# [6] = molecular target: Transporter, Norepinephrine (NET) (Homo sapiens, UniProt P23975); experiment: Safety screen; format: binding
# Method: Blood cell counts, kinase profiler, safety screen, bacterial cytotoxicity, Ames, micronucleus assays were performed by the company Eurofins (France).
# BrSK1(h) = BrSK1(h) (Homo sapiens, UniProt Q8TDC3); experiment: Kinase Profiler; format: biochemical
# Method: as §3
# CDK1/cyclinB(h) = CDK1/cyclinB(h) (Homo sapiens, UniProt P06493); experiment: Kinase Profiler; format: biochemical
# Method: as §3
# CDK16/cyclinY(h) = CDK16/cyclinY(h) (Homo sapiens, UniProt Q00536); experiment: Kinase Profiler; format: biochemical
# Method: as §3
# CLK2(h) = CLK2(h) (Homo sapiens, UniProt P49760); experiment: Kinase Profiler; format: biochemical
# Method: (§4) The kinase profiler was performed by the company Eurofins (Discovery, Panlab and Cerep).
# Fer(h) = Fer(h) (Homo sapiens, UniProt P16591); experiment: Kinase Profiler; format: biochemical
# Chain of Fer(h) (P16591 whole entry): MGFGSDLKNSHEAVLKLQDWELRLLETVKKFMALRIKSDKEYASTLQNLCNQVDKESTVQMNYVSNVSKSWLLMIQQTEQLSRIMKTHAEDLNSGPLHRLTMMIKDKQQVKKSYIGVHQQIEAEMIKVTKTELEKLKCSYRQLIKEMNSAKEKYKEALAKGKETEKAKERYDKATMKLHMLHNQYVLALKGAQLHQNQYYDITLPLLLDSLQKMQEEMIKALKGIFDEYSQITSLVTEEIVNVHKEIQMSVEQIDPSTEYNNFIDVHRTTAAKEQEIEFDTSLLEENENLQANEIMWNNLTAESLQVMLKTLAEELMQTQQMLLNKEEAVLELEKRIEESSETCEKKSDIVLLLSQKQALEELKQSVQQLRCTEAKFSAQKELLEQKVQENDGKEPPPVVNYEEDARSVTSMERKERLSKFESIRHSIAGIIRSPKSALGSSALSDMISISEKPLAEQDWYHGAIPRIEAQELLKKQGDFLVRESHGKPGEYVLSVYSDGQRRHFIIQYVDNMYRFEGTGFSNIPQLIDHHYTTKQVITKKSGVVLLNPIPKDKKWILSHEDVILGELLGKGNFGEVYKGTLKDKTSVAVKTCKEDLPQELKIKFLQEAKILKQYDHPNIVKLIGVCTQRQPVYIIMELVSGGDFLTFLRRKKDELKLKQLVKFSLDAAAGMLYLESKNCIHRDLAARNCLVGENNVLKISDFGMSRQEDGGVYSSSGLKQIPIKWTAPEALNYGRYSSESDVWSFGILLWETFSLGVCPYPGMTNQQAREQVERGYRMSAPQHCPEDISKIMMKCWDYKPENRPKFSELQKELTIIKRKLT
# Method: as §4
# FGFR3(h) = FGFR3(h) (Homo sapiens, UniProt P22607); experiment: Kinase Profiler; format: biochemical
# Chain of FGFR3(h) (P22607 23-806): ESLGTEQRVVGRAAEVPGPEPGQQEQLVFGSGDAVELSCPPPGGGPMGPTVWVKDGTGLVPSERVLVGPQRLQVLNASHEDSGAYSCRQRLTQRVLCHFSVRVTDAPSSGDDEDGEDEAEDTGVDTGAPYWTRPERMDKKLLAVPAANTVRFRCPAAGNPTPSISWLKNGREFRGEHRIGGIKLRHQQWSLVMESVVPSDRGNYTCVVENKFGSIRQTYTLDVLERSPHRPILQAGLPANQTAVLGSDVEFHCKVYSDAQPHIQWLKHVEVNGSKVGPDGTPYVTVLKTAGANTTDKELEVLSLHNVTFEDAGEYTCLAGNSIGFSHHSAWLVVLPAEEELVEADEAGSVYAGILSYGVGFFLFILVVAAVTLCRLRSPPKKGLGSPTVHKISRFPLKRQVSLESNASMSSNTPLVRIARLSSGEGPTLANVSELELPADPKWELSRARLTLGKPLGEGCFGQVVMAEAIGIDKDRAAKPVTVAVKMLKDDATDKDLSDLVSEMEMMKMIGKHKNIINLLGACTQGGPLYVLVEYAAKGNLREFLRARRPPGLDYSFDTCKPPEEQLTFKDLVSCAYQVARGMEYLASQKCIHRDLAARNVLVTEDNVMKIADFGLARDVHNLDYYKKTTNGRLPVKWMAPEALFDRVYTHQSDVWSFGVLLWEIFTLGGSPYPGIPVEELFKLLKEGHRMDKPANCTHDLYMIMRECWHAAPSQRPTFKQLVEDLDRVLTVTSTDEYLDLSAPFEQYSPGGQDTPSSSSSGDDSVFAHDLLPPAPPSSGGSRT
# Method: as §4
# GCK(h) = GCK(h) (Homo sapiens, UniProt Q12851); experiment: Kinase Profiler; format: biochemical
# Chain of GCK(h) (Q12851 whole entry): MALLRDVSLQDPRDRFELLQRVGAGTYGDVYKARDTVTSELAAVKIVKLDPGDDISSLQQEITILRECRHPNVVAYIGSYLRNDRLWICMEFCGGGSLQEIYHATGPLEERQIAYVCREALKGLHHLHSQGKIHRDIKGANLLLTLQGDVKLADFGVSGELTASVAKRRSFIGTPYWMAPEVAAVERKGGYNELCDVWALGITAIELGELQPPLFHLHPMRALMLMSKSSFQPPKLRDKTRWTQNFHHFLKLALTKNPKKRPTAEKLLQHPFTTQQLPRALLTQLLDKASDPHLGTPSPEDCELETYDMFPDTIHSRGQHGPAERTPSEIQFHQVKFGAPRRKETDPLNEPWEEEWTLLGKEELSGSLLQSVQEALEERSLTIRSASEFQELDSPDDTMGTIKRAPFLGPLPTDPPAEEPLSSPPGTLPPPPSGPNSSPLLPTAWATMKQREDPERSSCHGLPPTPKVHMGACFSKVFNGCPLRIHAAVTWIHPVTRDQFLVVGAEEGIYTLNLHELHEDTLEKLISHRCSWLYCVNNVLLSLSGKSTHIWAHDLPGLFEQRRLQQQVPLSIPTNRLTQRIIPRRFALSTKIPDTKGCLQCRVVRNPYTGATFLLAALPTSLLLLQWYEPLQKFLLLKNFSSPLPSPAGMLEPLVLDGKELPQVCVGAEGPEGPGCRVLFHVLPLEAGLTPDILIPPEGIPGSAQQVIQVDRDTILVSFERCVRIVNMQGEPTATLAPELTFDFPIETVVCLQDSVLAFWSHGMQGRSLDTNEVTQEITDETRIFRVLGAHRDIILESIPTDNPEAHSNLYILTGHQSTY
# Method: as §4
# GCN2(h) = GCN2(h) (Homo sapiens, UniProt Q9P2K8); experiment: Kinase Profiler; format: biochemical
# Method: as §3
# GRK6(h) = GRK6(h) (Homo sapiens, UniProt P43250); experiment: Kinase Profiler; format: biochemical
# Method: as §3
# Lyn(m) = Lyn(m) (Mus musculus, UniProt P25911); experiment: Kinase Profiler; format: biochemical
# Method: as §4
# MAPK2(h) = MAPK2(h) (Homo sapiens, UniProt P28482); experiment: Kinase Profiler; format: biochemical
# Method: as §4
# MAPKAP-K2(h) = MAPKAP-K2(h) (Homo sapiens, UniProt P49137); experiment: Kinase Profiler; format: biochemical
# Method: as §4
# Met(D1246H)(h) = Met(D1246H)(h) (Homo sapiens, UniProt P08581, D1228H); experiment: Kinase Profiler; format: biochemical
# Method: as §4
# MYO3B(h) = MYO3B(h) (Homo sapiens, UniProt Q8WXR4); experiment: Kinase Profiler; format: biochemical
# Method: as §4
# NEK2(h) = NEK2(h) (Homo sapiens, UniProt P51955); experiment: Kinase Profiler; format: biochemical
# Method: as §4
# PAK4(h) = PAK4(h) (Homo sapiens, UniProt O96013); experiment: Kinase Profiler; format: biochemical
# Method: as §3
# PhKγ2(h) = PhKγ2(h) (Homo sapiens, UniProt P15735); experiment: Kinase Profiler; format: biochemical
# Method: as §3
# PKG1β(h) = PKG1β(h) (Homo sapiens, UniProt Q13976); experiment: Kinase Profiler; format: biochemical
# Method: as §4
# Wee1B(h) = Wee1B(h) (Homo sapiens, UniProt P0C1S8); experiment: Kinase Profiler; format: biochemical
# Method: as §4
# WNK1(h) = WNK1(h) (Homo sapiens, UniProt Q9H4A3); experiment: Kinase Profiler; format: biochemical
# Chain of WNK1(h) (Q9H4A3 whole entry): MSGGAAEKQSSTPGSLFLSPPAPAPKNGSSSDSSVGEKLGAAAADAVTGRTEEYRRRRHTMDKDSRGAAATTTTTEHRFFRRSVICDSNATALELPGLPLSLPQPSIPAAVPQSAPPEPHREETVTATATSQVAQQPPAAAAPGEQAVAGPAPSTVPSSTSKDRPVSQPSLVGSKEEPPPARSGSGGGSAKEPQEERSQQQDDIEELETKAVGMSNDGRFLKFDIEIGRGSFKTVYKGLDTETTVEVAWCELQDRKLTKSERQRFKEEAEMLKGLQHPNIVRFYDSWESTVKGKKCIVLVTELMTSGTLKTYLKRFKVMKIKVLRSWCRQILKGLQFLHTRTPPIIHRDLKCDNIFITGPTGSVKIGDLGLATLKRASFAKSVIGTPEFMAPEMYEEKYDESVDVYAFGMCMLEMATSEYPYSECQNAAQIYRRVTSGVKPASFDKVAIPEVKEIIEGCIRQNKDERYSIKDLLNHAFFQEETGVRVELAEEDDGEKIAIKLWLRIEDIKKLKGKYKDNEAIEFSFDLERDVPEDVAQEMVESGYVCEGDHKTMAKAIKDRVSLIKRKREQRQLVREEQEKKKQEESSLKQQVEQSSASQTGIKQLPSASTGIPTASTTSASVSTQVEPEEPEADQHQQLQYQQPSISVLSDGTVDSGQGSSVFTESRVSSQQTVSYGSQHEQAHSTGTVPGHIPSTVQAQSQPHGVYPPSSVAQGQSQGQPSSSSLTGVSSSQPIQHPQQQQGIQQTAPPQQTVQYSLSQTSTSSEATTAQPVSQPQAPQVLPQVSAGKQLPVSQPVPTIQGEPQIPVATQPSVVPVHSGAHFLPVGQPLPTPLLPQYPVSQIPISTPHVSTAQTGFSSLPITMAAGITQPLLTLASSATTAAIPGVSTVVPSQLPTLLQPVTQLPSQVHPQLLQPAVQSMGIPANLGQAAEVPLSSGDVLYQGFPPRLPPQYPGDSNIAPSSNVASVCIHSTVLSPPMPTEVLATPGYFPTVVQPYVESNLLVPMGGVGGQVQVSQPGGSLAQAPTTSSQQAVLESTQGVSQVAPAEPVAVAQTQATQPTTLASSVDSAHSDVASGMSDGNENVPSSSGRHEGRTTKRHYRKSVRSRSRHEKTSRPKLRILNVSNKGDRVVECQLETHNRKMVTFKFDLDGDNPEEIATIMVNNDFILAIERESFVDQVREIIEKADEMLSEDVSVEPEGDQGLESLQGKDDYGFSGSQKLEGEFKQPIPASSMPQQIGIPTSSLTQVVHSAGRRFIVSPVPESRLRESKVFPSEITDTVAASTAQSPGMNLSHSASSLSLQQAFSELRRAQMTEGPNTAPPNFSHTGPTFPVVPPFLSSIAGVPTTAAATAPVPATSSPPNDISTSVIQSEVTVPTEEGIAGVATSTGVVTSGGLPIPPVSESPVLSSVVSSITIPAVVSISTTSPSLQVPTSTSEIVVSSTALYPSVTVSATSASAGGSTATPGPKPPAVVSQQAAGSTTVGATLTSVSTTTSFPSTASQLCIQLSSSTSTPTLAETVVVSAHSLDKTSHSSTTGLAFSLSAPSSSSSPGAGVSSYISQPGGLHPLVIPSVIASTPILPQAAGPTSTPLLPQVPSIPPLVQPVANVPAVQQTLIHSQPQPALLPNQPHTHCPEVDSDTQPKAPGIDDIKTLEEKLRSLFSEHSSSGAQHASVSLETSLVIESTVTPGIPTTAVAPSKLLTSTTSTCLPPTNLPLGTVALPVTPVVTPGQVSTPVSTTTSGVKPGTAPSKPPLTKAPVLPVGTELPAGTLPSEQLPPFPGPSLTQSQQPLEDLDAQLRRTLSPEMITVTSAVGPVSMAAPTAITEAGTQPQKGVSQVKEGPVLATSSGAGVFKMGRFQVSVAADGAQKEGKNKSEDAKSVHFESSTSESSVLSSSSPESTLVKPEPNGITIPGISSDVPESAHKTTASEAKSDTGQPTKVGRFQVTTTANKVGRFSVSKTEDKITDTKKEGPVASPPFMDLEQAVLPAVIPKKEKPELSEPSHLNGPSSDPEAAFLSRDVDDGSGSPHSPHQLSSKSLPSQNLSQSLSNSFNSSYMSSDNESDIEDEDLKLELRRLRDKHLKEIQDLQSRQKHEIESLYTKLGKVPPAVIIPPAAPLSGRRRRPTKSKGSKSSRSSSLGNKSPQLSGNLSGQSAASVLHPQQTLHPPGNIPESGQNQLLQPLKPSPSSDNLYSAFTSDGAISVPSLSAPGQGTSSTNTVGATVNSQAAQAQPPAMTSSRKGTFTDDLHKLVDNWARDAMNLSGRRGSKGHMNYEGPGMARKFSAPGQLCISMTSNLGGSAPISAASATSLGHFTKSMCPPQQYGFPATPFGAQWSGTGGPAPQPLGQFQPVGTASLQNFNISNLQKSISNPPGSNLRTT
# Method: as §4
structure (smiles),measurement,setting,value
COc1ccc(OC)c(NS(=O)(=O)c2ccc(NC(=O)CCSc3ccc(C)cc3)cc2)c1 [Compound A41],hyperactivation of AKT,[1],reduced
same,p44/42 activation,[2],unchanged
same,Count Positive (# of wells),"TA1535; - S9, 1.0E-04 M",0
same,Count Positive (# of wells),"TA1535; - S9, 1.0E-05 M",2
same,Count Positive (# of wells),"TA1535; - S9, 5.0E-05 M",0
same,Count Positive (# of wells),"TA1535; - S9, 5.0E-06 M",0
same,% inh.,[3],19%
same,% inh.,[4],-1%
same,% inh.,"Opiate µ(OP3, MOP)",14%
same,% inh.,[5],78%
same,% inh.,[6],36%
same,Activity(%),BrSK1(h),86%
same,Activity(%),CDK1/cyclinB(h),96%
same,Activity(%),CDK16/cyclinY(h),107%
same,Activity(%),CLK2(h),97%
same,Activity(%),Fer(h),114%
same,Activity(%),FGFR3(h),89%
same,Activity(%),GCK(h),114%
same,Activity(%),GCN2(h),101%
same,Activity(%),GRK6(h),100%
same,Activity(%),Lyn(m),110%
same,Activity(%),MAPK2(h),103%
same,Activity(%),MAPKAP-K2(h),111%
same,Activity(%),Met(D1246H)(h),115%
same,Activity(%),MYO3B(h),106%
same,Activity(%),NEK2(h),118%
same,Activity(%),PAK4(h),106%
same,Activity(%),PhKγ2(h),98%
same,Activity(%),PKG1β(h),105%
same,Activity(%),Wee1B(h),89%
same,Activity(%),WNK1(h),96%
